Assay results published in article PMC10062709, “Fluorescence based HTS-compatible ligand binding assays for dopamine D3 receptors in baculovirus preparations and live cells” (Frontiers in Molecular Biosciences, 2023).

Target: T1, human D3 receptor (Homo sapiens, UniProt P35462)
T1 construct: host or cells: Sf9 cells; final budded baculovirus production in Mimic Sf9 insect cells
Experiment: Fluorescence anisotropy competition binding with CELT-419 and D3 receptor budded baculoviruses
Conditions: FA competition with 0.5 nM CELT-419
Experimental: The competitive ligand dilutions were done on the measurement plate. Also, a point with no competitive ligand was included and for blank correction, a point with only BBV was included. Measurements were carried out with 5 min intervals for 5 h at 27 °C. In all cases, BBV was added as the last component to initiate the ligand binding process.
To fit the Log(IC50) change in time from the competition binding experiments, a single-phase exponential decay equation with a constant corresponding to the equilibrium state was used.

T1 sequence (P35462 whole entry): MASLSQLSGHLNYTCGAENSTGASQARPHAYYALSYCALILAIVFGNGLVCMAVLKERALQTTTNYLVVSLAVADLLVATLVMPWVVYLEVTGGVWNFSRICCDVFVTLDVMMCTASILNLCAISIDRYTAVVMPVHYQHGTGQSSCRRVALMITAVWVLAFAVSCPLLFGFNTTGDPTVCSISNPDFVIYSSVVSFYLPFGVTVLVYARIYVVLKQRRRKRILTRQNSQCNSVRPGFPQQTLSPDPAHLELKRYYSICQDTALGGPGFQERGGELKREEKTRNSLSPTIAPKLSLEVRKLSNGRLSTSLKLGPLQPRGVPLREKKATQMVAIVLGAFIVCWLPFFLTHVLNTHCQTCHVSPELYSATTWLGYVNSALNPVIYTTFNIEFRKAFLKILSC

Log(IC50) values change in time: increased in time
SMILES: CN1CCc2cccc3c2[C@H]1Cc1ccc(O)c(O)c1-3 [Apomorphine]
